The target in the experiment is T1, α-TTP (tocopherol transfer protein) (Homo sapiens, UniProt P49638).
T1 sequence (P49638 1-278): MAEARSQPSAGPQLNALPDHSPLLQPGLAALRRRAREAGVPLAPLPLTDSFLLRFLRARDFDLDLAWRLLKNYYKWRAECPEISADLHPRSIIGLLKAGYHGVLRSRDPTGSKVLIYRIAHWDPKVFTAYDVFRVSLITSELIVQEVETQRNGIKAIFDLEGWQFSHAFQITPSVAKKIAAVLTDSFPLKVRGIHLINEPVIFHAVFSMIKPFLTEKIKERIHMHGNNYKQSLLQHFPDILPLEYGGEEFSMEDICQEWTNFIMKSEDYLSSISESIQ
Nature of the experiment: fluorescence titration of purified α-TTP, one-site binding fit.

This is an account of results in PMC2891523 (The Journal of organic chemistry, 2010).

Molecule `CC1=CC(C)=[N+]2C1=Cc1ccc(CCCCCC[C@]3(C)CCc4c(C)c(O)c(C)c(C)c4O3)n1[B-]2(F)F` [10a, (R)-5,5-difluoro-7-(6-(6-hydroxy-2,5,7,8-tetramethylchroman-2-yl)hexyl)-1,3-dimethyl-5H-dipyrrolo[1,2-c:1′,2′-f][1,3,2]diazaborinin-4-ium-5-uide] gave a Kd of 232 ± 10 nM.
